Experimental data from article PMC4074034, “Gefitinib and Luteolin Cause Growth Arrest of Human Prostate Cancer PC-3 Cells via Inhibition of Cyclin G-Associated Kinase and Induction of miR-630” (PLoS ONE, 2014).

Molecular target: T1, GAK (cyclin G-associated kinase), GST-tagged human GAK (Homo sapiens, UniProt O14976)
T1 sequence (O14976 1-1311): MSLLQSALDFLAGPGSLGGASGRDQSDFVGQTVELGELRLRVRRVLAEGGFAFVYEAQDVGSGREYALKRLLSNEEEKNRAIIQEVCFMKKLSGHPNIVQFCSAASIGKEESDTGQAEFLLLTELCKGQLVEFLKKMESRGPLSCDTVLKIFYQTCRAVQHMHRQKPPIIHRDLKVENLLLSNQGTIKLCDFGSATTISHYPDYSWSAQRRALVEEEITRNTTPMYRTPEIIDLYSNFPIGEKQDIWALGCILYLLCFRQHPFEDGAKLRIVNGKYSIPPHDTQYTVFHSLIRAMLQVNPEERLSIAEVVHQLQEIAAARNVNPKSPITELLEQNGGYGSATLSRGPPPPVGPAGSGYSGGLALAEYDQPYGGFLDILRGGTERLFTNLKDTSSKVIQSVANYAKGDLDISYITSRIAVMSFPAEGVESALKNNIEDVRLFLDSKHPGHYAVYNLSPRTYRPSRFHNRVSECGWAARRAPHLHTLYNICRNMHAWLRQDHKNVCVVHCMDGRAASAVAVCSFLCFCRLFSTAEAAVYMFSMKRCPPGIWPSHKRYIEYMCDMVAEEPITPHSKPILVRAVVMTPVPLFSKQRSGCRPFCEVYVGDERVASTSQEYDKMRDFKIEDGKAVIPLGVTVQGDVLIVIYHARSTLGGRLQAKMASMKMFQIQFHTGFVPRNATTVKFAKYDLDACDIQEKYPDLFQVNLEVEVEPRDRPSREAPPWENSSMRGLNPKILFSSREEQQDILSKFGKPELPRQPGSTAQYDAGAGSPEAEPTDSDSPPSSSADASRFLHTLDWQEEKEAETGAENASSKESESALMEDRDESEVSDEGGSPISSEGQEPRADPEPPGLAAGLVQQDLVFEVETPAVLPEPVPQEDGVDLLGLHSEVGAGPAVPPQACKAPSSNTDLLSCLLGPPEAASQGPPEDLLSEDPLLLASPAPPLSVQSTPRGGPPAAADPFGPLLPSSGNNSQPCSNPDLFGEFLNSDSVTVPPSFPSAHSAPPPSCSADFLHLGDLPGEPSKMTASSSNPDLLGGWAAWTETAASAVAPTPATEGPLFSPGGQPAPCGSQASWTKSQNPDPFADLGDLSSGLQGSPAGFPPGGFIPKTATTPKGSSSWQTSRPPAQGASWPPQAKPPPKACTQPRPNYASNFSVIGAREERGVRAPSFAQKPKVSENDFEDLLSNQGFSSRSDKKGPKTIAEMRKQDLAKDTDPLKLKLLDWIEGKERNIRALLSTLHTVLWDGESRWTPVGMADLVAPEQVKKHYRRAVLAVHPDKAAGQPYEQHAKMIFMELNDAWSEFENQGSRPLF
Assay: […]-ATP in vitro kinase assay, SDS-PAGE autoradiography
Format: biochemical
Settings: substrate mouse PP2A B'γ fragment, also autophosphorylation, 5 µM ATP, 10 mM MgCl2, 5 mM MnCl2, pH 7.5, 30°C, 30 min

Structure (SMILES): COc1cc2ncnc(Nc3ccc(F)c(Cl)c3)c2cc1OCCCN1CCOCC1 [gefitinib]
- intensity ratio of phosphorylated PP2A B'γ and GAK: Gefitinib inhibited GAK autophosphorylation and GAK-mediated phosphorylation of PP2A B′γ in a dose-dependent manner

Structure (SMILES): C#Cc1cccc(Nc2ncnc3cc(OCCOC)c(OCCOC)cc23)c1 [erlotinib]
- intensity ratio of phosphorylated PP2A B'γ and GAK: Both of these compounds inhibited GAK activity similarly

Structure (SMILES): C[S+]([O-])c1ccc(-c2nc(-c3ccc(F)cc3)c(-c3ccncc3)[nH]2)cc1 (stereo not shown) [SB203580]
- intensity ratio of phosphorylated PP2A B'γ and GAK: Both of these compounds inhibited GAK activity similarly

Structure (SMILES): Oc1ccc(/C=C/c2cc(O)cc(O)c2)cc1 [resveratrol]
- intensity ratio of phosphorylated PP2A B'γ and GAK (10 µM compound): the same concentration of resveratrol had only a slight inhibitory effect
